Usually Kd stands for a measure of binding affinity in units of concentration. Low values mean tighter binding, high ones weaker binding.

In experiment [1] the target is T1, rI-FABP (SEQ ID NO: 3) variant L2P14F7 MGI KR14 K27K, MGI - KR14 - 18G 27K 31M 72A (Rattus norvegicus, UniProt P02693, G32M/K101R/K126R/K17R/K21R/K30R/K38R/K47R/K51R/K89R/K8R/K93R/K95R/L73A/M19G).
T1 construct: made in house
Briefly: bilirubin binding to L2P14F7 MGI KR14 K27K probe. The following applies: Table 6, acrylodan. As to the method: (§1) Also described are analytical/mathematical methods for calibrating and using the bilirubin probes. Bilirubin probes are calibrated to determine their binding affinity for bilirubin (dissociation constant Kd) under conditions, such as temperature, pH and solution composition, that correspond to samples in which it is desired to know the unbound bilirubin concentration. Binding isotherms are performed in aqueous buffer by measuring the change in fluorescence of the bilirubin probes in response to increasing bilirubin concentrations (“titration data”). The set of fluorescence responses at each bilirubin concentration are fitted with an appropriate equation (“calibration equation”) that correctly describes the fluorescence response as a function of the bilirubin concentration, the probe concentration, specific spectroscopic characteristics, and the Kd.

The target of experiment [2] is T2, rI-FABP (SEQ ID NO: 3) variant L24P19 C7 K27K 26C, 14R 18L 26C 38V 60R 73F 106C 115R 117D (Rattus norvegicus, UniProt P02693, A74F/L39V/L73A/M19L/Q116R/R107C/V27C/V61R/Y118D/Y15R).
T2 construct: made in house
T2 sequence (P02693 with tags, fused parts or gaps Y15R/M19L/V27C/L39V/V61R/L73A/A74F/R107C/Q116R/Y118D): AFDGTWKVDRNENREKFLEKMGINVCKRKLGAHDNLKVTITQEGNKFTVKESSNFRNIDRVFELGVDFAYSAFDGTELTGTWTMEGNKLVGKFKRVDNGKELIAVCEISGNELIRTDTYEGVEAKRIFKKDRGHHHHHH
Briefly: bilirubin binding to L24P19C7 26C probe. The following applies: Table 5, acrylodan. The procedure: as §1
(§2) . […] The optimal probe performance was obtained with cysteine at positions 25 or 26.

The target in experiment [3] is T3, rI-FABP (SEQ ID NO: 3) variant L2P14F7 MGI KR14 K27C, MGI - KR14 - 18G 27C 31M 72A (Rattus norvegicus, UniProt P02693, A2G/G32M/INS2I/K101R/K126R/K130R/K131R/K17R/K21R/K28C/K30R/K38R/K47R/K51R/K89R/K8R/K93R/K95R/L73A/M19G).
T3 construct: made in house
T3 sequence (P02693 with tags, fused parts or gaps with the stated changes): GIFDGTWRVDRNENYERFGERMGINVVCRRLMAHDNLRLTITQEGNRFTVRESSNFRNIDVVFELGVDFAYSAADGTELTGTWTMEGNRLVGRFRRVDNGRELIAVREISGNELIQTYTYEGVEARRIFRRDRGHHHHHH
Briefly: bilirubin binding to L2P14F7 MGI KR14 K27C probe. The following applies: Table 5, acrylodan. The procedure: as §1

The target in experiment [4] is T4, rI-FABP (SEQ ID NO: 3) variant BL22P1 B11 - 24C, MGI - KR14 - 14R 18L 24C 27A 38V 60R 73F 106L 115R 117D (Rattus norvegicus, UniProt P02693, A74F/K101R/K126R/K17R/K21R/K28A/K30R/K38R/K47R/K51R/K89R/K8R/K93R/K95R/L39V/L73A/M19L/N25C/Q116R/R107L/V61R/Y118D/Y15R).
T4 construct: 6xHis (C); made in house
T4 sequence (P02693 with tags, fused parts or gaps with the stated changes): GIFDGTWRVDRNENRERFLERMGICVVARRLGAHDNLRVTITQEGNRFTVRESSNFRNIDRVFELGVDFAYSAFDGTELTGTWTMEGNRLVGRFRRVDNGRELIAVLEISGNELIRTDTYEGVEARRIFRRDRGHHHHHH
In kind it is binding. The following applies: Table 5, Alexa Fluor 680 C2-maleimide. The procedure: as §1

Experiment [5] has as its target T5, rI-FABP (SEQ ID NO: 3) variant BL22P1 B11 - 26C, MGI - KR14 - Y14R M18L V26C K27A L38V V60R A73F R106L Q115R Y117D (Rattus norvegicus, UniProt P02693, A74F/K101R/K126R/K17R/K21R/K28A/K30R/K38R/K47R/K51R/K89R/K8R/K93R/K95R/L39V/L73A/M19L/Q116R/R107L/V27C/V61R/Y118D/Y15R).
T5 construct: 6xHis (C); made in house
In kind it is binding. The following applies: Table 5, Alexa Fluor 680 C2-maleimide. As to the method: as §1

Experiment [6] has as its target T6, rI-FABP (SEQ ID NO: 3) variant BL22P1 B11 - 29C, MGI - KR14 - 14R 18L 27A 29C 38V 60R 73F 106L 115R 117D (Rattus norvegicus, UniProt P02693, A74F/K101R/K126R/K17R/K21R/K28A/K30C/K38R/K47R/K51R/K89R/K8R/K93R/K95R/L39V/L73A/M19L/Q116R/R107L/V61R/Y118D/Y15R).
T6 construct: 6xHis (C); made in house
In kind it is binding. The following applies: Table 5, Alexa Fluor 680 C2-maleimide. The procedure: as §1

Experiment [7] deals with T7, rI-FABP (SEQ ID NO: 3) variant L22P19 B9, 38R 72A 73M 106Q 115C (Rattus norvegicus, UniProt P02693, A74M/L39R/L73A/Q116C/R107Q).
T7 construct: made in house
T7 sequence (P02693 with tags, fused parts or gaps L39R/L73A/A74M/R107Q/Q116C): as the sequence (P02693 with tags, fused parts or gaps Y15R/M19L/V27C/L39V/V61R/L73A/A74F/R107C/Q116R/Y118D) above, with R14Y, L18M, C26V, V38R, R60V, F73M, C106Q, R115C, D117Y counted along it
The experiment can be described thus: bilirubin binding to L22P19B9 probe. The following applies: Table 5, acrylodan. The procedure:
as §1

Experiment [8] addresses T8, rI-FABP (SEQ ID NO: 3) variant L24P19 C7 K27K 22C, 14R 18L 22C 38V 60R 73F 106C 115R 117D (Rattus norvegicus, UniProt P02693, A74F/G23C/L39V/L73A/M19L/Q116R/R107C/V61R/Y118D/Y15R).
T8 construct: made in house
Briefly: bilirubin binding to L24P19C7 22C probe. The following applies: Table 5, acrylodan. The procedure: as §1, §2

Experiment [9] has as its target T9, rI-FABP (SEQ ID NO: 3) variant L2P14 F7-KR14 - K27C, KR14-18G 27C 31M 72A (Rattus norvegicus, UniProt P02693, G32M/K101R/K126R/K17R/K21R/K28C/K30R/K38R/K47R/K51R/K89R/K8R/K93R/K95R/L73A/M19G).
T9 construct: made in house
The experiment can be described thus: bilirubin binding to L2P14F7-KR14-K27C probe. The following applies: Table 5, acrylodan. The procedure:
as §1

The target of experiment [10] is T10, rI-FABP (SEQ ID NO: 3) variant L24P19 C7 K27K 30C, 14R 18L 30C 38V 60R 73F 106C 115R 117D (Rattus norvegicus, UniProt P02693, A74F/L31C/L39V/L73A/M19L/Q116R/R107C/V61R/Y118D/Y15R).
T10 construct: made in house
T10 sequence (P02693 with tags, fused parts or gaps Y15R/M19L/L31C/L39V/V61R/L73A/A74F/R107C/Q116R/Y118D): as the sequence (P02693 with tags, fused parts or gaps Y15R/M19L/V27C/L39V/V61R/L73A/A74F/R107C/Q116R/Y118D) above, with C26V, L30C counted along it
Briefly: bilirubin binding to L24P19C7 30C probe. The following applies: Table 5, acrylodan. As to the method: as §1, §2

Experiment [11] deals with T11, rI-FABP (SEQ ID NO: 3) variant BL10P10 D10, 14F 18L 27C 38M 60Y 73F 106V 115R 117D (Rattus norvegicus, UniProt P02693, A74F/K28C/L39M/L73A/M19L/Q116R/R107V/V61Y/Y118D/Y15F).
T11 construct: made in house
T11 sequence (P02693 with tags, fused parts or gaps Y15F/M19L/K28C/L39M/V61Y/L73A/A74F/R107V/Q116R/Y118D): as the sequence (P02693 with tags, fused parts or gaps Y15R/M19L/V27C/L39V/V61R/L73A/A74F/R107C/Q116R/Y118D) above, with R14F, C26V, K27C, V38M, R60Y, C106V counted along it
The experiment can be described thus: bilirubin binding to BL10P10D10 probe. The following applies: Table 5, acrylodan. The procedure: as §1

Experiment [12] addresses T12, rI-FABP (SEQ ID NO: 3) variant L24P19 C7 K27K 25C, 14R 18L 25C 38V 60R 73F 106C 115R 117D (Rattus norvegicus, UniProt P02693, A74F/L39V/L73A/M19L/Q116R/R107C/V26C/V61R/Y118D/Y15R).
T12 construct: made in house
Briefly: bilirubin binding to L24P19C7 25C probe. The following applies: Table 5, acrylodan. As to the method: as §1, §2

SMILES strings stand for the structures.

T9 sequence (P02693 with tags, fused parts or gaps with the stated changes): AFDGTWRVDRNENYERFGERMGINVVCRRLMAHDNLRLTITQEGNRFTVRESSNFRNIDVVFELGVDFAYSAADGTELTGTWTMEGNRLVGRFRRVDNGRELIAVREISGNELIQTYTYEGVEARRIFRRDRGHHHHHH
T1 sequence (P02693 with tags, fused parts or gaps with the stated changes): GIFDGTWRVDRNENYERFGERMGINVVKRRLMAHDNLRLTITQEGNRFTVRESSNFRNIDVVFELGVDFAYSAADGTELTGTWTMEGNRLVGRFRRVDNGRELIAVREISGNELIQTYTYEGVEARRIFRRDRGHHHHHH
T5 sequence (P02693 with tags, fused parts or gaps with the stated changes): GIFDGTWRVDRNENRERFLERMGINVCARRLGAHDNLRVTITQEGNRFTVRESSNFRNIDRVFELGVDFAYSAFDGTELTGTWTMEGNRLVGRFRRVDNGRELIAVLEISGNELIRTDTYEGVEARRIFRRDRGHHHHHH
T12 sequence (P02693 with tags, fused parts or gaps Y15R/M19L/V26C/L39V/V61R/L73A/A74F/R107C/Q116R/Y118D): as the sequence (P02693 with tags, fused parts or gaps Y15R/M19L/V27C/L39V/V61R/L73A/A74F/R107C/Q116R/Y118D) above, with V25C, C26V counted along it
T8 sequence (P02693 with tags, fused parts or gaps Y15R/M19L/G23C/L39V/V61R/L73A/A74F/R107C/Q116R/Y118D): as the sequence (P02693 with tags, fused parts or gaps Y15R/M19L/V27C/L39V/V61R/L73A/A74F/R107C/Q116R/Y118D) above, with G22C, C26V counted along it
T6 sequence (P02693 with tags, fused parts or gaps with the stated changes): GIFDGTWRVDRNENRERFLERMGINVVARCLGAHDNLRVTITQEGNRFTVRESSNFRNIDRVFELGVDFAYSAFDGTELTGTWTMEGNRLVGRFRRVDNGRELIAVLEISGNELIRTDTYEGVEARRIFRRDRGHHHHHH

With `C=CC1=C(C)/C(=C/c2[nH]c(Cc3[nH]c(/C=C4\NC(=O)C(C)=C4C=C)c(C)c3CCC(=O)O)c(CCC(=O)O)c2C)NC1=O` [bilirubin], the Kd is 84 nM in experiment [1]; 19 nM in experiment [2]; 350 nM in experiment [3]; 72 nM in experiment [4]; 197 nM in experiment [5]; 118 nM in [6]. The Kd came to 400 nM in experiment [7]; 71 nM in [8]; 530 nM in experiment [9]; 26 nM in [10]; 400 nM in [11]; 19 nM in experiment [12].

Values taken from US10295551B2, “Development and use of fluorescent probes of unbound bilirubin” (Alan Marc Kleinfeld, priority 2011, dated 2019).
